Measured values: patent publication US20100105746A1, “METHOD FOR TREATING METABOLIC DISEASES” (priority 2008, published 2010)
“And” between values parts separate entries of the source, which are not always exact repeats. Equal values may be shown once.

Experiments:
[1] = Body weight, food consumption and liver weight in diet-induced obese (DIO) rat model (Example 4); assay type: in vivo
Experimental: Male Sprague-Dawley rats were acclimated for 7 weeks on a high-fat diet before commencement of dose administration, and maintained on the same diet throughout the subsequent dosing period of 23 days. The high-fat diet (D12492 commercially available from Research Diets, Inc., New Brunswick, N.J.) was one in which at least 60% of calories are derived from fat.
Dose levels of gemfibrozil (50 mg/kg) and sibutramine (10 mg/kg) were selected based on published reports. All treatments were administered once daily by oral gavage in 10 ml vehicle. A vehicle-only control was also administered. Each treatment group consisted of 10 animals.
Body weight of each animal was measured weekly during the 7-week acclimation period and five times weekly during the 23-day dosing period. Food consumption was recorded twice weekly during the 7-week acclimation period and five times weekly during the 23-day dosing period.
Animals were sacrificed and liver weights measured at conclusion of the study.

[2] = Oral glucose tolerance test (OGTT) in rats with diet-induced obesity (Example 5); assay type: in vivo, rat; settings: for Glucose concentration excursion (baseline to maximum) / Glucose concentration maximum: OGTT day 21, DIO rats; for Time to maximum (glucose concentration): OGTT day 21, dextrose 2 g/kg
Experimental: As part of the study described in Example 4, an oral glucose tolerance test (OGTT) was performed on day 21 of the dosing period, after a 2-4 hour fast. Dextrose (2 g/kg) was administered by oral gavage. Blood for glucose analysis was collected at 0, 15, 30, 60, 120 and 180 minutes after dextrose administration. At each time point, 0.25 ml whole blood was collected in EDTA, processed to plasma, and analyzed for blood glucose with a low-volume glucose kit.

[3] = Terminal fasting serum glucose and lipids in rats with diet-induced obesity (Example 6); assay type: in vivo, rat; settings: DIO rats, vs vehicle control
Experimental: As part of the study described in Example 4, a terminal blood sample (0.5 ml whole blood in EDTA) was collected on day 24, after a 12-18 hour fast. Whole blood was processed to serum, and analyzed for glucose, total cholesterol, HDL cholesterol, free fatty acids and total triglycerides.

[4] = Plasma lipids, lipoproteins and liver weight in normal rats versus fibrates (Example 8); assay type: in vivo, rat; settings: once daily p.o. 7 days, approximation
From the text: The study design was based on the protocols used in Examples 1-3. Male Sprague-Dawley rats were provided normal chow ad libitum, both before and during the study period. […] Six rats were assigned to each treatment group (8 to the vehicle control). The study terminated on the day following administration of the seventh dose (day 8), with terminal blood collected for plasma lipid and lipoprotein analyses including LC-MS-based determination of lipid profiles, total and free cholesterol analyses, and lipoprotein cholesterol determinations (VLDL, LDL and HDL).
In order to elucidate the impact of romazarit on plasma lipoproteins, an ultraviolet (UV) size exclusion chromatography (SEC) system was used to separate plasma into broad lipoprotein-containing fractions that were based on relative retention times of human VLDL (very low density lipoprotein), LDL (low density lipoprotein), and HDL (high density lipoprotein) standards. These fractions were collected for cholesterol assays and the UV chromatograms were integrated to provide relative quantitation of the three lipoprotein types. It is important to note that since the UV absorbance measurement is not specific for lipoproteins and may also derive from other plasma constituents that co-elute with a particular lipoprotein, the relative quantitation data reported here is an approximation. The HDL fraction in particular may have included such co-eluting species, as evidenced by the relatively high integrated area values for this fraction.

[5] = DIO rats, 10 mg/kg once daily p.o.

In the case of `Cc1ccc(C)c(OCCCC(C)(C)C(=O)O)c1` [gemfibrozil], the food consumption ([1]; DIO rats, 50 mg/kg once daily p.o., dosing period) is reported as “No significant effect”, the body weight ([1]; DIO rats, 50 mg/kg once daily p.o., throughout the dosing period) is reported as “no significant effect” and the liver weight ([1]; rat, in vivo, po, 50 mg/kg) is reported as “Increased liver weight”. The “Glucose concentration excursion (baseline to maximum)” value ([2]; 50 mg/kg) was 110.0 mg/dL and 111.0 mg/dL, the Glucose concentration maximum ([2]; 50 mg/kg) was 264.9 mg/dL and the “Time to maximum (glucose concentration)” value ([2]; DIO rats, 50 mg/kg) was 30 min. The “terminal (total) cholesterol levels” value ([3]; day 24, 50 mg/kg once daily) was “significantly increased”, the “terminal HDL levels” value ([3]; day 24, 50 mg/kg once daily) was “significantly increased” and the “terminal fasting levels of triglycerides” value ([3]; day 24, 50 mg/kg once daily) was “significant reduction”. For the same molecule, the “terminal fasting serum glucose” value ([3]; day 24, 50 mg/kg once daily) was “did not result in a significant decrease”, the “terminal levels of free fatty acids” value ([3]; day 24, 50 mg/kg once daily) was “significant increase” and the “VLDL (UV size exclusion chromatography, relative quantitation)” value [4] was “similarly significant effect”.
With `CC(C)CC(N(C)C)C1(c2ccc(Cl)cc2)CCC1` (stereo not shown) [sibutramine] the “day by which food consumption returned to levels comparable to the vehicle control” value [1, 5] was no more than 8 days, the “time of minimum food consumption” value [1, 5] was no more than 2 days and the body weight ([1]; DIO rats, 10 mg/kg once daily p.o., 23 days) was “significant weight loss”. For the same molecule, the liver weight ([1]; DIO rats, 10 mg/kg once daily p.o., conclusion of the study) was “No increase in liver weight”, the Glucose concentration baseline ([2]; OGTT day 21, 0 minutes, DIO rats, 10 mg/kg) was 126.9 mg/dL and the “Glucose concentration excursion (baseline to maximum)” value ([2]; 10 mg/kg) was 74.4 mg/dL. For the same molecule, the Glucose concentration maximum ([2]; 10 mg/kg) was 201.3 mg/dL, the “Time to maximum (glucose concentration)” value ([2]; DIO rats, 10 mg/kg) was 30 min and the “terminal (total) cholesterol levels” value ([3]; day 24, 10 mg/kg once daily) was “no effect”. For the same molecule, the “terminal HDL levels” value ([3]; day 24, 10 mg/kg once daily) was “no significant effect”, the “terminal fasting levels of triglycerides” value ([3]; day 24, 10 mg/kg once daily) was “significant reduction” and the “terminal fasting serum glucose” value ([3]; day 24, 10 mg/kg once daily) was “significant decrease”. The “terminal levels of free fatty acids” value ([3]; day 24, 10 mg/kg once daily) was “no effect”.
